Data as given in ChEMBL document CHEMBL5537151, “Design, synthesis and bioactivity evaluation of novel fusion peptides and their CPT conjugates inducing effective anti-tumor responses on HER2 positive tumors” (Eur J Med Chem, 2024).
Peptide text beside a SMILES is read from it. * marks the point of attachment. X2 = CCC1(OC(=O)CCCCCN2C(=O)CC(*)C2=O)C(=O)OCc2c1cc1n(c2=O)Cc2cc3ccccc3nc2-1; X4 = CCC1(OC(=O)OCCSSC[C@H](N)C(=O)*)C(=O)OCc2c1cc1n(c2=O)Cc2cc3ccccc3nc2-1; X3 = CCC1(OC(=O)CCSSC[C@H](N)C(=O)*)C(=O)OCc2c1cc1n(c2=O)Cc2cc3ccccc3nc2-1; X6 = CCC1(OC(=O)OCCS*)C(=O)OCc2c1cc1n(c2=O)Cc2cc3ccccc3nc2-1; X5 = CCC1(OC(=O)CCS*)C(=O)OCc2c1cc1n(c2=O)Cc2cc3ccccc3nc2-1

Assays:
[1] = Cytotoxicity against HER-negative human MCF-10A cells incubated for 48 hrs by CCK-8 assay; format: toxicity, cell-based
[2] = tested on: SK-BR-3; assay: cells; conditions: Homo sapiens, SK-BR-3, 48 h
Description: Cytotoxicity against HER-positive human SK-BR-3 cells incubated for 48 hrs by CCK-8 assay

[3] = tested on: NCI-N87; assay: cells; conditions: Homo sapiens, NCI-N87, 48 h
Description: Cytotoxicity against HER-positive human NCI-N87 cells incubated for 48 hrs by CCK-8 assay

[4] = tested on: SK-OV-3; assay: cells; conditions: Homo sapiens, SK-OV-3, 48 h
Description: Cytotoxicity against HER-positive human SK-OV-3 cells incubated for 48 hrs by CCK-8 assay

[5] = tested on: MDA-MB-231; assay: cells; conditions: Homo sapiens, MDA-MB-231, 48 h
Description: Cytotoxicity against HER-negative human MDA-MB-231 cells incubated for 48 hrs by CCK-8 assay

| IC50 [2] [µM] | IC50 [3] [µM] | IC50 [4] [µM] | IC50 [5] [µM] | SMILES | IC50 at 48 h [1] [µM] |
| --- | --- | --- | --- | --- | --- |
| 2.3 | 8.01 | 4.73 | 15.1 | CC[C@H](C)[C@H](NC(=O)[C@@H]1CCCN1C(=O)[C@@H](NC(=O)[C@H](C)N)C(C)C)C(=O)N[C@@H](C)C(=O)N[C@@H](CCC(N)=O)C(=O)N[C@@H](CCCCN)C(=O)NCC(=O)N[C@@H](Cc1ccccc1)C(=O)N[C@@H](CC(C)C)C(=O)NCC(=O)N[C@@H](CC(N)=O)C(=O)N1CCC[C@H]1C(=O)N[C@@H](CC(N)=O)C(=O)N[C@@H](Cc1c[nH]c2ccccc12)C(=O)NCC(=O)N[C@@H](CCCNC(=N)N)C(=O)N[C@@H](CO)C(=O)N[C@@H](Cc1c[nH]c2ccccc12)C(=O)N[C@@H](Cc1ccc(O)cc1)C(=O)N[C@@H](CC(N)=O)C(=O)N[C@@H](CCC(N)=O)C(=O)N[C@@H](CCCNC(=N)N)C(=O)N[C@@H](Cc1ccccc1)C(=O)N[C@@H](CCCCNC(=O)[C@@H](N)CSSCCC(=O)OC1(CC)C(=O)OCc2c1cc1n(c2=O)Cc2cc3ccccc3nc2-1)C(N)=O (stereo not given in full) (H-AVPIAQKGFLGNPNWGRSWYNQRFK(X3)-NH2) | 28.4 |
| 1.78 | 6.53 | 5.81 | 16.2 | CC[C@H](C)[C@H](NC(=O)[C@@H]1CCCN1C(=O)[C@@H](NC(=O)[C@H](C)N)C(C)C)C(=O)N[C@@H](C)C(=O)N[C@@H](CCC(N)=O)C(=O)N[C@@H](CCCCN)C(=O)N[C@@H](CSSCCC(=O)OC1(CC)C(=O)OCc2c1cc1n(c2=O)Cc2cc3ccccc3nc2-1)C(=O)NCC(=O)N[C@@H](Cc1ccccc1)C(=O)N[C@@H](CC(C)C)C(=O)NCC(=O)N[C@@H](CC(N)=O)C(=O)N1CCC[C@H]1C(=O)N[C@@H](CC(N)=O)C(=O)N[C@@H](Cc1c[nH]c2ccccc12)C(=O)NCC(=O)N[C@@H](CCCNC(=N)N)C(=O)N[C@@H](CO)C(=O)N[C@@H](Cc1c[nH]c2ccccc12)C(=O)N[C@@H](Cc1ccc(O)cc1)C(=O)N[C@@H](CC(N)=O)C(=O)N[C@@H](CCC(N)=O)C(=O)N[C@@H](CCCNC(=N)N)C(=O)N[C@@H](Cc1ccccc1)C(=O)N[C@@H](CCCCN)C(N)=O (stereo not given in full) (H-AVPIAQKC(X5)GFLGNPNWGRSWYNQRFK-NH2) | 22.1 |
| 0.58 | 3.86 | 6.17 | 4.73 | CC[C@H](C)[C@H](NC(=O)[C@@H]1CCCN1C(=O)[C@@H](NC(=O)[C@H](C)N)C(C)C)C(=O)N[C@@H](C)C(=O)N[C@@H](CCC(N)=O)C(=O)N[C@@H](CCCCN)C(=O)NCC(=O)N[C@@H](Cc1ccccc1)C(=O)N[C@@H](CC(C)C)C(=O)NCC(=O)N[C@@H](CC(N)=O)C(=O)N1CCC[C@H]1C(=O)N[C@@H](CC(N)=O)C(=O)N[C@@H](Cc1c[nH]c2ccccc12)C(=O)NCC(=O)N[C@@H](CCCNC(=N)N)C(=O)N[C@@H](CO)C(=O)N[C@@H](Cc1c[nH]c2ccccc12)C(=O)N[C@@H](Cc1ccc(O)cc1)C(=O)N[C@@H](CC(N)=O)C(=O)N[C@@H](CCC(N)=O)C(=O)N[C@@H](CCCNC(=N)N)C(=O)N[C@@H](Cc1ccccc1)C(=O)N[C@@H](CCCCNC(=O)[C@@H](N)CSSCCOC(=O)OC1(CC)C(=O)OCc2c1cc1n(c2=O)Cc2cc3ccccc3nc2-1)C(N)=O (stereo not given in full) (H-AVPIAQKGFLGNPNWGRSWYNQRFK(X4)-NH2) | 15.2 |
| 0.85 | 3.04 | 4.03 | 6.43 | CC[C@H](C)[C@H](NC(=O)[C@@H]1CCCN1C(=O)[C@@H](NC(=O)[C@H](C)N)C(C)C)C(=O)N[C@@H](C)C(=O)N[C@@H](CCC(N)=O)C(=O)N[C@@H](CCCCN)C(=O)NCC(=O)N[C@@H](Cc1ccccc1)C(=O)N[C@@H](CC(C)C)C(=O)NCC(=O)N[C@@H](CSSCCOC(=O)OC1(CC)C(=O)OCc2c1cc1n(c2=O)Cc2cc3ccccc3nc2-1)C(=O)N[C@@H](CC(N)=O)C(=O)N1CCC[C@H]1C(=O)N[C@@H](CC(N)=O)C(=O)N[C@@H](Cc1c[nH]c2ccccc12)C(=O)NCC(=O)N[C@@H](CCCNC(=N)N)C(=O)N[C@@H](CO)C(=O)N[C@@H](Cc1c[nH]c2ccccc12)C(=O)N[C@@H](Cc1ccc(O)cc1)C(=O)N[C@@H](CC(N)=O)C(=O)N[C@@H](CCC(N)=O)C(=O)N[C@@H](CCCNC(=N)N)C(=O)N[C@@H](Cc1ccccc1)C(=O)N[C@@H](CCCCN)C(N)=O (stereo not given in full) (H-AVPIAQKGFLGC(X6)NPNWGRSWYNQRFK-NH2) | 18.2 |
| 15.7 | 20.1 | > 50 | 28.2 | CC[C@H](C)[C@H](NC(=O)[C@@H]1CCCN1C(=O)[C@@H](NC(=O)[C@H](C)N)C(C)C)C(=O)N[C@@H](C)C(=O)N[C@@H](CCC(N)=O)C(=O)N[C@@H](CCCCN)C(=O)N[C@@H](CSC1CC(=O)N(CCCCCC(=O)OC2(CC)C(=O)OCc3c2cc2n(c3=O)Cc3cc4ccccc4nc3-2)C1=O)C(=O)NCC(=O)N[C@@H](Cc1ccccc1)C(=O)N[C@@H](CC(C)C)C(=O)NCC(=O)N[C@@H](CC(N)=O)C(=O)N1CCC[C@H]1C(=O)N[C@@H](CC(N)=O)C(=O)N[C@@H](Cc1c[nH]c2ccccc12)C(=O)NCC(=O)N[C@@H](CCCNC(=N)N)C(=O)N[C@@H](CO)C(=O)N[C@@H](Cc1c[nH]c2ccccc12)C(=O)N[C@@H](Cc1ccc(O)cc1)C(=O)N[C@@H](CC(N)=O)C(=O)N[C@@H](CCC(N)=O)C(=O)N[C@@H](CCCNC(=N)N)C(=O)N[C@@H](Cc1ccccc1)C(=O)N[C@@H](CCCCN)C(N)=O (stereo not given in full) (H-AVPIAQKC(X2)GFLGNPNWGRSWYNQRFK-NH2) | > 50 |
